Data as given in patent US20240083861A1, “HSD17B13 INHIBITORS AND USES THEREOF” (FL2022-001, Inc., priority 2020, published 2024).

The compounds below were run against T1, Recombinant human HSD17B13 enzyme (Homo sapiens, UniProt Q7Z5P4) (assay: HSD17b13 NAD(P)H-Glo biochemical assay). Settings: 50 uM estradiol, 1 mM NAD+, NAD(P)H-Glo luminescence; read-out: HSD17β13 IC50.
T1 sequence (Q7Z5P4 20-300): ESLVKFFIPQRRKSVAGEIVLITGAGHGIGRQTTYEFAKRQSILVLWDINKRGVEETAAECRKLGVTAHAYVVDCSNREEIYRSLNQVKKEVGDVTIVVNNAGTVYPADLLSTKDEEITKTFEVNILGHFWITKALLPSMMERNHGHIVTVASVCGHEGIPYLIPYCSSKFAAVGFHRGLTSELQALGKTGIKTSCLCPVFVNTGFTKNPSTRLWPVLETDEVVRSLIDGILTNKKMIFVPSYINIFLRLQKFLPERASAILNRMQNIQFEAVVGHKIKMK
Outline: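 Recombinant human HSD17B13 in 20 mM Tris pH7.4 with 0.002% Tween-20 and 0.02% BSA was preincubated with inhibitor for 20 minutes at RT. The reaction ran 3 hours at 37° C with 50 uM estradiol and 1 mM NAD+ (final). NADH formed was detected by NAD(P)H-Glo luminescence after 1 hour at RT.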

Row | IC50 | SMILES
1 | < 100 nM | Cn1nc(-c2cc(C(F)(F)F)c(F)c(O)c2F)c2ccc(N3CCOCC34CC4)nc21 [Compound 9.03, 2,6-Difluoro-3-(1-methyl-6-(7-oxa-4-azaspiro[2.5]octan-4-yl)-1H-pyrazolo[3,4-b]pyridin-3-yl)-5-(trifluoromethyl)phenol]
2 | < 100 nM | Cn1nc(-c2cc(C(F)(F)F)c(F)c(O)c2F)c2cnc(N3CC4(CCOCC4)C3)nc21 [Compound 9.04, 2,6-Difluoro-3-(1-methyl-6-(7-oxa-2-azaspiro[3.5]nonan-2-yl)-1H-pyrazolo[3,4-d]pyrimidin-3-yl)-5-(trifluoromethyl)phenol]
3 | 100 to 1000 nM | Cn1nc(-c2cc(C(F)(F)F)c(F)c(O)c2F)c2cnc(N3CCC3(C)C)nc21 [Compound 9.05, 3-(6-(2,2-Dimethylazetidin-1-yl)-1-methyl-1H-pyrazolo[3,4-d]pyrimidin-3-yl)-2,6-difluoro-5-(trifluoromethyl)phenol]
4 | < 100 nM | Cn1nc(-c2cc(C(F)(F)F)c(F)c(O)c2F)c2cnc(N3CC(C)(C)C3)nc21 [Compound 9.06, 3-(6-(3,3-Dimethylazetidin-1-yl)-1-methyl-1H-pyrazolo[3,4-d]pyrimidin-3-yl)-2,6-difluoro-5-(trifluoromethyl)phenol]
5 | < 100 nM | CN(c1cc2c(cn1)c(-c1cc(C(F)(F)F)c(F)c(O)c1F)nn2C)C1CCC1 [Compound 9.07, 3-(6-(Cyclobutyl(methyl)amino)-1-methyl-1H-pyrazolo[4,3-c]pyridin-3-yl)-2,6-difluoro-5-(trifluoromethyl)phenol]
6 | < 100 nM | Cn1nc(-c2cc(C(F)(F)F)c(F)c(O)c2F)c2cnc(N3CC(C)(C#N)C3)cc21 [Compound 9.08, 1-(3-(2,4-Difluoro-3-hydroxy-5-(trifluoromethyl)phenyl)-1-methyl-1H-pyrazolo[4,3-c]pyridin-6-yl)-3-methylazetidine-3-carbonitrile]
7 | 100 to 1000 nM | Cn1nc(-c2cc(C(F)(F)F)c(F)c(O)c2F)c2cnc(N3CC(C)(C#N)C3)nc21 [Compound 9.09, 1-(3-(2,4-Difluoro-3-hydroxy-5-(trifluoromethyl)phenyl)-1-methyl-1H-pyrazolo[3,4-d]pyrimidin-6-yl)-3-methylazetidine-3-carbonitrile]
8 | < 100 nM | Cn1nc(-c2cc(C(F)(F)F)c(F)c(O)c2F)c2cnc(N3CC4(CCOCC4)C3)cc21 [Compound 9.10, 2,6-Difluoro-3-(1-methyl-6-(7-oxa-2-azaspiro[3.5]nonan-2-yl)-1H-pyrazolo[4,3-c]pyridin-3-yl)-5-(trifluoromethyl)phenol]
9 | < 100 nM | CN(CC1CC1)c1cc2c(cn1)c(-c1cc(C(F)(F)F)c(F)c(O)c1F)nn2C [Compound 9.11, 3-(6-((Cyclopropylmethyl) (methyl)amino)-1-methyl-1H-pyrazolo[4,3-c]pyridin-3-yl)-2,6-difluoro-5-(trifluoromethyl)phenol]
10 | < 100 nM | Cn1nc(-c2cc(C(F)(F)F)c(F)c(O)c2F)c2cnc(N3CC4(COC4)C3)cc21 [Compound 9.12, 2,6-Difluoro-3-(1-methyl-6-(2-oxa-6-azaspiro[3.3]heptan-6-yl)-1H-pyrazolo[4,3-c]pyridin-3-yl)-5-(trifluoromethyl)phenol]
11 | < 100 nM | COC1(C)CN(c2ncc3c(-c4cc(C(F)(F)F)c(F)c(O)c4F)nn(C)c3n2)C1 [Compound 9.13, 2,6-Difluoro-3-(6-(3-methoxy-3-methylazetidin-1-yl)-1-methyl-1H-pyrazolo[3,4-d]pyrimidin-3-yl)-5-(trifluoromethyl)phenol]
12 | < 100 nM | Cn1nc(-c2cc(C(F)(F)F)c(F)c(O)c2F)c2cnc(NC3CCC3)cc21 [Compound 9.14, 3-(6-(Cyclobutylamino)-1-methyl-1H-pyrazolo[4,3-c]pyridin-3-yl)-2,6-difluoro-5-(trifluoromethyl)phenol]
13 | < 100 nM | Cn1nc(-c2cc(C(F)(F)F)c(F)c(O)c2F)c2cnc(NC34CC(C3)C4)nc21 [Compound 9.15, 3-(6-(Bicyclo[1.1.1]pentan-1-ylamino)-1-methyl-1H-pyrazolo[3,4-d]pyrimidin-3-yl)-2,6-difluoro-5-(trifluoromethyl)phenol]
14 | < 100 nM | Cn1nc(-c2cc(C(F)(F)F)c(F)c(O)c2F)c2cnc(NC3CCC3)nc21 [Compound 9.16, 3-(6-(Cyclobutylamino)-1-methyl-1H-pyrazolo[3,4-d]pyrimidin-3-yl)-2,6-difluoro-5-(trifluoromethyl)phenol]
15 | < 100 nM | CN(c1cc2c(cn1)c(-c1cc(C(F)(F)F)c(F)c(O)c1F)nn2C)C1CCOCC1 [Compound 9.17, 2,6-Difluoro-3-(1-methyl-6-(methyl(tetrahydro-2H-pyran-4-yl)amino)-1H-pyrazolo[4,3-c]pyridin-3-yl)-5-(trifluoromethyl)phenol]
16 | < 100 nM | CN(c1ccc2c(-c3cc(C(F)(F)F)c(F)c(O)c3F)nn(C)c2n1)C1CCC1 [Compound 9.18, 3-(6-(Cyclobutyl(methyl)amino)-1-methyl-1H-pyrazolo[3,4-b]pyridin-3-yl)-2,6-difluoro-5-(trifluoromethyl)phenol]
17 | < 100 nM | Cn1nc(-c2cc(C(F)(F)F)c(F)c(O)c2F)c2ccc(N3CCOCC34CC4)cc21 [Compound 9.19, 2,6-Difluoro-3-(1-methyl-6-(7-oxa-4-azaspiro[2.5]octan-4-yl)-1H-indazol-3-yl)-5-(trifluoromethyl)phenol]
18 | < 100 nM | Cn1nc(-c2cc(C(F)(F)F)c(F)c(O)c2F)c2cnc(N3C4CCC3COC4)cc21 [Compound 9.20, 3-(6-(3-Oxa-8-azabicyclo [3.2.1]octan-8-yl)-1-methyl-1H-pyrazolo[4,3-c]pyridin-3-yl)-2,6-difluoro-5-(trifluoromethyl)phenol]
19 | < 100 nM | COCC1(N(C)c2cc3c(cn2)c(-c2cc(C(F)(F)F)c(F)c(O)c2F)nn3C)CCC1 [Compound 9.21, 2,6-Difluoro-3-(6-((1-(methoxymethyl)cyclobutyl)(methyl)amino)-1-methyl-1H-pyrazolo[4,3-c]pyridin-3-yl)-5-(trifluoromethyl)phenol]
20 | 100 to 1000 nM | CS(=O)(=O)N1CCN(c2ccc3c(-c4cc(O)c(F)c(C(F)(F)F)c4)n[nH]c3c2)CC1 [Compound 9.23, 2-Fluoro-5-(6-(4-(methylsulfonyl)piperazin-1-yl)-1H-indazol-3-yl)-3-(trifluoromethyl)phenol]
21 | 100 to 1000 nM | CS(=O)(=O)N1CCN(c2cc3[nH]nc(-c4cc(O)c(F)c(C(F)(F)F)c4)c3cc2F)CC1 [Compound 9.24, 2-Fluoro-5-(5-fluoro-6-(4-(methylsulfonyl)piperazin-1-yl)-1H-indazol-3-yl)-3-(trifluoromethyl)phenol]
22 | 100 to 1000 nM | Cc1cc(-c2n[nH]c3cc(N4CCN(S(C)(=O)=O)CC4)ccc23)c(F)c(O)c1F [Compound 9.25, 2,6-Difluoro-3-methyl-5-(6-(4-(methylsulfonyl)piperazin-1-yl)-1H-indazol-3-yl)phenol]
23 | 100 to 1000 nM | Cn1nc(-c2cc(O)c(F)c(C(F)(F)F)c2)c2ccc(N3CCN(S(C)(=O)=O)CC3)cc21 [Compound 9.26, 2-Fluoro-5-(1-methyl-6-(4-(methylsulfonyl)piperazin-1-yl)-1H-indazol-3-yl)-3-(trifluoromethyl)phenol]
24 | 100 to 1000 nM | CN(c1cc2c(cn1)c(-c1cc(C(F)(F)F)c(F)c(O)c1F)nn2C)C1CCOC1 (stereo not drawn) [Compound 9.27, 2,6-Difluoro-3-(1-methyl-6-(methyl(tetrahydrofuran-3-yl)amino)-1H-pyrazolo[4,3-c]pyridin-3-yl)-5-(trifluoromethyl)phenol]
25 | < 100 nM | Cn1nc(-c2cc(C(F)(F)F)c(F)c(O)c2F)c2cnc(N3CC4CCC3CO4)cc21 (stereo not drawn) [Compound 9.28, 3-(6-(2-Oxa-5-azabicyclo[2.2.2]octan-5-yl)-1-methyl-1H-pyrazolo[4,3-c]pyridin-3-yl)-2,6-difluoro-5-(trifluoromethyl)phenol]
26 | < 100 nM | Cn1nc(-c2cc(C(F)(F)F)c(F)c(O)c2F)c2cnc(N(C3CCC3)C3CCOCC3)cc21 [Compound 9.29, 3-(6-(Cyclobutyl(tetrahydro-2H-pyran-4-yl)amino)-1-methyl-1H-pyrazolo[4,3-c]pyridin-3-yl)-2,6-difluoro-5-(trifluoromethyl)phenol]
27 | < 100 nM | C[C@@H]1COCCN1c1cc2c(cn1)c(-c1cc(C(F)(F)F)c(F)c(O)c1F)nn2C [Compound 9.30, (R)-2,6-Difluoro-3-(1-methyl-6-(3-methylmorpholino)-1H-pyrazolo[4,3-c]pyridin-3-yl)-5-(trifluoromethyl)phenol]
28 | < 100 nM | Cn1nc(-c2cc(C(F)(F)F)c(F)c(O)c2F)c2cnc(N3CCOCC3(C)C)cc21 [Compound 9.31, 3-(6-(3,3-Dimethylmorpholino)-1-methyl-1H-pyrazolo[4,3-c]pyridine-3-yl)-2,6-difluoro-5-(trifluoromethyl)phenol]
29 | < 100 nM | CN(c1cc2c(cn1)c(-c1cc(C(F)(F)F)c(F)c(O)c1F)nn2C)C12CC(C1)C2 [Compound 9.32, 3-(6-(Bicyclo[1.1.1]pentan-1-yl(methyl)amino)-1-methyl-1H-pyrazolo[4,3-c]pyridin-3-yl)-2,6-difluoro-5-(trifluoromethyl)phenol]

Same assay, conditions: at 10 uM compound; read-out: HSD17β13 % inhibition at 10 uM

Row | inhibition at 10 µM | SMILES
30 | 36% | CS(=O)(=O)N1CCN(c2ccc3c(-c4cc(O)cc(C(F)(F)F)c4F)n[nH]c3c2)CC1 [Compound 9.22, 4-Fluoro-3-(6-(4-(methylsulfonyl)piperazin-1-yl)-1H-indazol-3-yl)-5-(trifluoromethyl)phenol]
